# Source: patent US12704520B2, “Melanogenesis detection method using FAM86A” (Research & Business Foundation Sungkyunkwan University, priority 2019, dated 2026)
# What was measured:
# B16F10 cells [1] = test: Melanin content assay after FAM86A knockdown and α-MSH treatment; format: cell-based, mouse; conditions: FAM86A knockdown plus α-MSH 100 nM, 48 hours, absorbance 405 nm
# Experimental: A melanocyte stimulating hormone (α-MSH), which is a melanin synthesis promoting hormone, was used to induce melanogenesis in melanocytes.
# The B16F10 cells cultured in Example 1 were seeded in 6-well plates at a density of 5×10^4 cells per well, grown for 24 hours, and FAM86A shRNA represented by SEQ ID NO: 17 in Table 1 was used for knockdown of the FAM86A gene. The cells were treated with α-MSH to be 100 nM. The resulting cells were cultured in an incubator under conditions of 37° C. and 5% CO2 for 48 hours, the medium was removed, and a cell lysis buffer was treated at 200 μL per well to lyse the cells, followed by centrifugation at 4° C. and 12,000 rpm for 5 minutes and removal of a supernatant. The resulting pellet was treated with 100 μL of a 10% sodium dodecyl sulfate-1M NaOH solution and heated for 30 minutes at 60° C. Afterward, the heated solution was maintained at room temperature to cool to 25° C., absorbance at 405 nm was measured, and the results are shown in FIG. 12. Here, an amount of melanin production was calculated based on 100% of the amount of melanin in cells not treated with α-MSH.
# [2] = tested on: MAPK & MC1R signaling pathway proteins; test: Western blotting of MAPK & MC1R signaling pathway proteins after FAM86A knockdown; format: cell-based, mouse; conditions: B16F10 cells, 48 hours
# Experimental: The B16F10 cells cultured in Example 1 were seeded in 6-well plates at a density of 5×10^4 cells per well, grown for 24 hours, and FAM86A shRNA represented by SEQ ID NO: 17 was used to induce the knockdown of FAM86A gene. The cells were cultured in an incubator under conditions of 37° C. and 5% CO2 for 48 hours. Afterward, the cells were washed twice with PBS. After completely removing the PBS, 200 μL of RIPA buffer, which is a cell lysis and staining reagent, was added to the plate, and the cells were collected using a scraper. Afterward, a protein was quantified using a BCA assay, and electrophoresis was performed using 10% SDS-PAGE. The protein in the resulting PAGE gel was transferred onto a PVDF membrane, and the resulting PVDF membrane onto which the protein transfer had been completed was blocked in TBS-T (in 100 mM NaCl, 10 mM Tris, 0.1% (v/v) Tween-20, pH 7.4 (PBST) containing 3% BSA) at room temperature. Then, after washing three times for 10 minutes using TBS-T, a primary antibody in 3% BSA dissolved in TBS-T was treated for 1 hour, and sufficiently washed with TBS-T. In addition, a secondary antibody was treated for 1 hour, and washed three times with PBS-T for 10 minutes each. Subsequently, the amount and location of a specific protein were confirmed using an ECL detection system. The correction of the protein amount was performed by checking the amount of an actin protein by stripping the PVDF membrane, and confirming it to have the same amount as that of the protein of interest. The primary and secondary antibodies were purchased from Cell Signaling and Santa Cruz.
# [3] = tested on: tyrosinase, TYRP-1, TYRP-2 and MITF genes; test: Real-time PCR of melanogenesis-associated genes after FAM86A knockdown; format: cell-based, mouse; conditions: B16F10 cells, 48 hours
# Experimental: The B16F10 cells cultured in Example 1 were seeded in 6-well plates at a density of 5×10^4 cells per well, grown for 24 hours, and FAM86A shRNA represented by SEQ ID NO: 17 was used for knockdown of the FAM86A gene. The cells were incubated in an incubator under conditions of 37° C. and 5% CO2 for 48 hours. After 48 hours, the medium was completely removed, the cells were decomposed with TRIzol and neutralized using BCP. The neutralized liquid was treated with isopropanol to precipitate mRNA. Subsequently, only the precipitated mRNA was collected using a centrifuge, and used for the experiment. Intracellular mRNA was synthesized into cDNA using a cDNA kit, and the expression levels of tyrosinase, TYRP-1, TYRP-2 and MITF genes, which are important for melanogenesis, were determined by PCR.
# B16F10 cells [4] = test: Fontana-Masson staining after FAM86A knockdown; format: cell-based, mouse; conditions: α-MSH 100 nM, 48 hours, microscope
# Experimental: The B16F10 cells cultured in Example 1 were seeded in 6-well plates at a density of 5×10^4 cells per well, grown for 24 hours, and FAM86A shRNA represented by SEQ ID NO: 17 was used for knockdown of the FAM86A gene. The cells were treated with α-MSH at 100 nM. The resulting cells were cultured in an incubator under conditions of 37° C. and 5% CO2 for 48 hours, washed twice with PBS, and 1 mL of a 1% ammoniacal silver nitrate solution was added to each well, followed by heating a plate in a 60° C. dryer for 1 hour. Subsequently, the plate was washed three times with running water, and treated with 1 mL of a 0.2% gold chloride solution per well for 30 seconds. Afterward, the plate was washed twice with running water, treated with 1 mL of a 5% sodium thiosulfate solution per well, washed twice with running water, treated with 1 mL of a 0.5% neutral red solution per well for 2 minutes, and then washed with running water. The reaction result was confirmed under a microscope.
# B16F10 cells [5] = test: Melanin secretion assay after FAM86A knockdown and α-MSH treatment; format: cell-based, mouse; conditions: FAM86A knockdown plus α-MSH 100 nM, 48 hours, absorbance 475 nm
# Experimental: The melanin synthesis promoting hormone α-MSH was used to induce melanogenesis in melanocytes.
# The B16F10 cells cultured in Example 1 were seeded in a 6-well plate at 5×10^4 cells/well and cultured for 24 hours, FAM86A (family with sequence similarity 86, member A) shRNA represented by SEQ ID NO: 17 was used for knockdown of the FAM86A gene, and then the cells were treated with α-MSH at 100 nM. The resulting cells were cultured in an incubator under conditions of 37° C. and 5% CO2 for 48 hours, and 800 μL of the cell culture fluid was transferred to a fresh tube, and centrifuged at 4° C. and 12,000 rpm for 5 minutes to obtain a supernatant. 100 μL of the resulting supernatant was dispensed into a 96-well plate, and subjected to absorbance measurement at 475 nm. Here, an amount of melanin production was calculated based on 100% of the amount of melanin in cells not treated with α-MSH.
# FAM86 (NM_027446.2) = test: shRNA mean knockdown level of FAM86 (Table 1); format: cell-based; conditions: Mus musculus FAM86, pLKO.1 vector
substance,measurement,setting,value
"SEQ ID NO: 17: FAM86 shRNA (Mus musculus, NM_027446.2), pLKO.1 vector, target sequence SEQ ID NO: 27; used in the examples (DNA CCGGGTCTATGTAGCCTATACTATCCTCGAGGATAGTATAGGCTACATAGACTTTTTG)",amount of melanin (production),B16F10 cells [1],increased
same,expression level of MITF protein,[2],significantly increased
same,expression level of p-CREB protein,[2],significantly increased
same,expression level of p-PKA protein,[2],significantly increased
same,p-ERK,[2],decreased
same,p-JNK,[2],increased
same,p-p38,[2],increased
same,expression level of MITF gene,[3],significantly increased
same,expression level of TYRP-1 gene,[3],significantly increased
same,expression level of TYRP-2 gene,[3],significantly increased
same,expression level of tyrosinase gene,[3],significantly increased
same,presence of melanin (Fontana-Masson staining),B16F10 cells [4],more present
same,secretion amount of melanin,B16F10 cells [5],increased
same,Mean Knock down level,FAM86 (NM_027446.2),0.87
